Source: US9233920B2, “Process for the preparation of dihydropyrrole derivatives” (Syngenta Participations AG, priority 2010, dated 2016)

Legend:
Assay type in all cases: in vivo
Diabrotica balteata = Diabrotica balteata (corn root worm) L2 larvae test on artificial diet in 24-well microtiter plate; conditions: 5 days incubation, larval mortality and growth regulation
Experimental: (§1) These examples illustrate the comparative insecticidal and acaricidal properties of compounds A23 and A24. The tests were performed as follows:
Diabrotica balteata (Corn Root Worm):
A 24-well microtiter plate (MTP) with artificial diet was treated with test solutions at an application rate of 12.5 ppm (concentration in well 18 ppm) by pipetting. After drying, the MTP's were infested with L2 larvae (6-10 per well). After an incubation period of 5 days, samples were checked for larval mortality and growth regulation.

Heliothis virescens = Heliothis virescens (tobacco budworm) egg/larval test on artificial diet in 24-well microtiter plate; conditions: Heliothis virescens eggs 0-24 h old, 4 days incubation, egg mortality, larval mortality, growth regulation
Experimental: as §1
Heliothis virescens (Tobacco Budworm):
Eggs (0-24 h old) were placed in 24-well microtiter plate on artificial diet and treated with test solutions at an application rate of 12.5 ppm (concentration in well 18 ppm) by pipetting. After an incubation period of 4 days, samples were checked for egg mortality, larval mortality, and growth regulation.

Thrips tabaci = Thrips tabaci (onion thrips) sunflower leaf disc spray test; conditions: Thrips tabaci mixed ages on sunflower leaf discs, 7 days incubation, mortality
Experimental: as §1
Thrips tabaci (Onion Thrips):
[…] After drying, the leaf discs were infested with an […] population of mixed ages. After an incubation period of 7 days, samples were checked for mortality.

Compound | % Control at 12.5 ppm (Diabrotica balteata) | % Control at 200 ppm (Diabrotica balteata) | % Control at 12.5 ppm (Heliothis virescens) | % Control at 200 ppm (Heliothis virescens) | % Control at 12.5 ppm (Thrips tabaci) | % Control at 200 ppm (Thrips tabaci)
Cc1cc(C2=NC[C@@](c3cc(Cl)cc(Cl)c3)(C(F)(F)F)C2)ccc1C(=O)NC1CS(=O)(=O)C1 [Compound A23, 4-[(3R)-3-(3,5-dichlorophenyl)-3-(trifluoromethyl)-2,4-dihydropyrrol-5-yl]-N-(1,1-dioxothietan-3-yl)-2-methyl-benzamide] | 100% | 100% | 100% | 100% | 100% | 100%
Cc1cc(C2=NC[C@](c3cc(Cl)cc(Cl)c3)(C(F)(F)F)C2)ccc1C(=O)NC1CS(=O)(=O)C1 [Compound A24, 4-[(3S)-3-(3,5-dichlorophenyl)-3-(trifluoromethyl)-2,4-dihydropyrrol-5-yl]-N-(1,1-dioxothietan-3-yl)-2-methyl-benzamide] | 0% | 100% | 50% | 100% | 40% | 100%
